# Test results taken from patent US20240327334A1, “Covalent Inhibitors As Antiviral Agents” (Enanta Pharmaceuticals, Inc., priority 2022, published 2024).
# Legend:
# SARS-CoV-2 replicon = test: microbe, parasite or virus in culture; format: cell-based; settings: Severe acute respiratory syndrome coronavirus 2, Huh-7
# [1] = target: SARS-CoV-2 Papain-like (PLpro) protease (Severe acute respiratory syndrome coronavirus 2, UniProt P0DTD1); test: SARS-CoV-2 Papain-like (PLpro) protease biochemical enzyme inhibition assay (ubiquitin-fluorophore substrate, Ub-R110); settings: Ub-R110 substrate; run in duplicate; read-out: PLpro IC50
SMILES,EC50 (SARS-CoV-2 replicon) [µM],IC50 [1] [µM]
O=C(NCC#Cc1nccs1)C(=O)NCc1ccccc1C(=O)NC1(c2ccnc3ccccc23)CC1 [Example 392],1 to 10,< 0.1
O=C(NCC#Cc1ccc(C(F)(F)F)cc1F)C(=O)NCc1ccccc1C(=O)NC1(c2ccc3ccccc3c2)CC1 [Example 175],1 to 10,0.1 to 1
C#CCNC(=O)C(=O)NCc1ccccc1C(=O)NC1(c2cc(Cl)cc(-c3nnc(C)o3)c2)CC1 [Example 484],< 1,< 0.1
C#CCNC(=O)C(=O)NCc1ccccc1C(=O)NC1(c2ccc(F)c(-c3cn(C)nc3C)c2)CC1 [Example 237],< 1,< 0.1
C[C@@H](C#Cc1nccs1)NC(=O)C(=O)NCc1ccccc1C(=O)NC1(c2cc(F)cc(-c3cnn(C4COC4)c3)c2)CC1 [Example 254],< 1,< 0.1
C#C[C@H](C)NC(=O)C(=O)NCc1ccccc1C(=O)NC1(c2cccc3ccccc23)CC1 [Example 156],< 1,< 0.1
N#CCNC(=O)C(=O)NCc1ccccc1C(=O)NC1(c2cc(C#N)cc3ccccc23)CC1 [Example 294],< 1,< 0.1
COC(=O)/C=C/CNC(=O)C(=O)NCc1cccc(F)c1C(=O)N[C@H](C)c1cccc2ccccc12 [Example 28],< 1,< 0.1
CC[C@@H](C#Cc1nccs1)NC(=O)C(=O)NCc1ccccc1C(=O)NC1(c2ccc3nn(C)cc3c2)CC1 [Example 146],< 1,< 0.1
O=C(NCC#Cc1nccs1)C(=O)NCc1ccccc1C(=O)NC1(c2cc3ccccc3cn2)CC1 [Example 394],< 1,< 0.1
N#CCNC(=O)C(=O)NCc1ccccc1C(=O)NC1(c2cc(Cl)cc(Br)c2)CC1 [Example 455],> 10,0.1 to 1
N#CCNC(=O)C(=O)NCc1ccccc1C(=O)NC1(c2cc(-c3cnn(CC(F)F)c3)cc3ccccc23)CC1 [Example 286],< 1,< 0.1
CS(=O)(=O)n1cc(-c2cc(C3(NC(=O)c4ccccc4CNC(=O)C(=O)NCC#N)CC3)c3ccccc3c2)cn1 [Example 356],1 to 10,< 0.1
C#CCNC(=O)C(=O)NCc1ccccc1C(=O)NC1(c2cc(Cl)cc(-c3cc4ccccc4s3)c2)CC1 [Example 445],1 to 10,< 0.1
COc1cc(C2(NC(=O)c3ccccc3CNC(=O)C(=O)N[C@@H](C)C#Cc3nccs3)CC2)cc2cn(C3CC3)nc12 [Example 336],< 1,< 0.1
O=C(NC/C=C/c1ncccn1)C(=O)NCc1ccccc1C(=O)NC1(c2ccc3ccccc3c2)CC1 [Example 582],< 1,< 0.1
N#CCNC(=O)C(=O)NCc1ccccc1C(=O)NC1(c2cc(-c3ccn(C(F)F)n3)cc3ccccc23)CC1 [Example 293],< 1,< 0.1
O=C(NC/C=C/C(=O)N1CC[C@@H](O)C1)C(=O)NCc1ccccc1C(=O)NC1(c2cccc3ccccc23)CC1 [Example 563],> 10,< 0.1
C[C@@H](C#Cc1ccc(C#N)cc1F)NC(=O)C(=O)NCc1ccccc1C(=O)NC1(c2cc(F)cc(-c3cnn(C4CC4)c3)c2)CC1 [Example 145],< 1,< 0.1
CC(C)(O)Cn1cc(-c2cc(F)cc(C3(NC(=O)c4ccccc4CNC(=O)C(=O)NCC#Cc4ncccc4Cl)CC3)c2)cn1 [Example 281],< 1,< 0.1

SMILES,EC50 (SARS-CoV-2 replicon) [µM],IC50 [1] [µM]
O=C(NCC#Cc1nccs1)C(=O)NCc1ccccc1C(=O)NC1(c2cccc(-c3cnn(C4CC4)c3)c2Cl)CC1 [Example 385],< 1,< 0.1
O=C(NCC#Cc1ncccn1)C(=O)NCc1ccccc1C(=O)NC1(c2ccc3ccccc3c2)CC1 [Example 168],< 1,< 0.1
N#CCNC(=O)C(=O)NCc1ccccc1C(=O)NC1(c2cccc(Br)c2)CC1 [Example 545],> 10,0.1 to 1
C#CCNC(=O)C(=O)NCc1ccccc1C(=O)NC1(c2cc(Cl)cc(-c3cncs3)c2)CC1 [Example 447],< 1,< 0.1
N#CCNC(=O)C(=O)NCc1ccccc1C(=O)NC1(c2cccc3nc(Cl)ccc23)CC1 [Example 386],< 1,< 0.1
C#CCNC(=O)C(=O)NCc1ccccc1C(=O)NC1(c2ccc(OC)c(-c3cnn(C4CC4)c3)c2)CC1 [Example 245],< 1,< 0.1
C#CCNC(=O)C(=O)NCc1ccccc1C(=O)NC1(c2ccc(F)c(Br)c2)CC1 [Example 227],< 1,< 0.1
C#CCNC(=O)C(=O)NCc1ccc(C#N)cc1C(=O)NC1(c2ccc(F)c3ccccc23)CC1 [Example 53],< 1,< 0.1
C#CCNC(=O)C(=O)NCc1ccccc1C(=O)NC1(c2ccc3nn(C)cc3c2)CC1 [Example 338],< 1,< 0.1
COc1cc(C2(NC(=O)c3ccccc3CNC(=O)C(=O)N[C@@H](C)C#Cc3ncccn3)CC2)cc2cn(C3CC3)nc12 [Example 532],< 1,< 0.1
C#CCNC(=O)C(=O)NCc1ccccc1C(=O)NC1(c2cccc3cc(F)ccc23)CC1 [Example 56],< 1,< 0.1
N#Cc1cc(F)c(C#CCNC(=O)C(=O)NCc2ccccc2C(=O)NC2(c3ccc4ccccc4c3)CC2)c(F)c1 [Example 87],< 1,< 0.1
COc1ccc(-c2cc(C3(NC(=O)c4ccccc4CNC(=O)C(=O)NCC#N)CC3)c3ccccc3c2)s1 [Example 351],< 1,< 0.1
N#CCNC(=O)C(=O)NCc1ccccc1C(=O)NC1(c2cc(C(F)(F)F)nc3ccccc23)CC1 [Example 90],1 to 10,< 0.1
CC(C)(O)c1cccc(-c2cc(C3(NC(=O)c4ccccc4CNC(=O)C(=O)NCC#N)CC3)c3ccccc3c2)n1 [Example 283],< 1,< 0.1
Cc1cccnc1C#CCNC(=O)C(=O)NCc1ccccc1C(=O)NC1(c2cc(F)cc(-c3cn(C)nc3C)c2)CC1 [Example 260],< 1,< 0.1
O=C(NCC#Cc1ncco1)C(=O)NCc1ccccc1C(=O)NC1(c2ccc3ccccc3c2)CC1 [Example 137],< 1,< 0.1
O=C(NCC#Cc1ccc(C(F)(F)F)cn1)C(=O)NCc1ccccc1C(=O)NC1(c2ccc3ccccc3c2)CC1 [Example 189],< 1,< 0.1
CN1CC(COc2ccc(CNC(=O)C(=O)NCC#N)c(C(=O)NC3(c4cccc5ccccc45)CC3)c2)C1 [Example 326],1 to 10,< 0.1
O=C(NCC#Cc1ncc(F)cn1)C(=O)NCc1ccccc1C(=O)NC1(c2ccc3ccccc3c2)CC1 [Example 176],< 1,< 0.1

SMILES,EC50 (SARS-CoV-2 replicon) [µM],IC50 [1] [µM]
O=C(NCC#Cc1nccs1)C(=O)NCc1ccccc1C(=O)NC1(c2cc(Cl)cc(-c3ncco3)c2)CC1 [Example 487],< 1,< 0.1
N#CCNC(=O)C(=O)NCc1ccccc1C(=O)NC1(c2cc(F)cc(-c3cnn(C4CC4)c3)c2F)CC1 [Example 312],1 to 10,< 0.1
N#CN1CCC(C(=O)NCc2ccccc2C(=O)NC2(c3cccc4ccccc34)CC2)C1 (stereo not shown) [Example 115],< 1,< 0.1
C[C@@H](C#Cc1nccs1)NC(=O)C(=O)NCc1ccccc1C(=O)NC1(c2cc(Cl)cc(-c3ncco3)c2)CC1 [Example 493],< 1,< 0.1
Cc1nn(C2CC2)c(C)c1-c1cc(F)cc(C2(NC(=O)c3ccccc3CNC(=O)C(=O)NCC#Cc3nccs3)CC2)c1 [Example 139],< 1,< 0.1
Cc1nn(C)cc1-c1cc(C2(NC(=O)c3ccccc3CNC(=O)C(=O)NCC#N)CC2)ccc1F [Example 236],> 10,0.1 to 1
CON(C)C(=O)C#CCNC(=O)C(=O)NCc1ccccc1C(=O)NC1(c2cccc3ccccc23)CC1 [Example 524],< 1,< 0.1
C#CCNC(=O)C(=O)NCc1ccccc1C(=O)NC1(c2cc(F)cc(Br)c2)CC1 [Example 228],< 1,< 0.1
CN(C)CCn1cc(-c2cc(F)cc(C3(NC(=O)c4ccccc4CNC(=O)C(=O)NCC#Cc4ccccn4)CC3)c2)cn1 [Example 250],< 1,< 0.1
C[C@@H](NC(=O)c1ccccc1CNC(=O)C(=O)NCC#Cc1nccs1)c1cc(F)cc(-c2cnn(C(F)F)c2)c1 [Example 492],< 1,< 0.1
COc1cc(C2(NC(=O)c3ccccc3CNC(=O)C(=O)NCC#N)CC2)c2cccnc2c1 [Example 411],1 to 10,< 0.1
C#CCNC(=O)C(=O)NCc1ccccc1C(=O)NC1(c2cc(-c3cnn(C4CC4)c3)cc(Cl)c2F)CC1 [Example 302],< 1,< 0.1
C[C@@H](C#Cc1nccs1)NC(=O)C(=O)NCc1ccccc1C(=O)NC1(c2ccc3ccccc3c2)CC1 [Example 183],< 1,< 0.1
Cn1cc(-c2cc(C3(NC(=O)c4ccccc4CNC(=O)C(=O)NCC#N)CC3)ccc2F)cn1 [Example 231],> 10,< 0.1
O=C(NCC#Cc1ncc(F)s1)C(=O)NCc1ccccc1C(=O)NC1(c2ccc3ccccc3c2)CC1 [Example 179],< 1,< 0.1
N#C/C=C/CNC(=O)C(=O)NCc1ccccc1C(=O)NC1(c2cc(Br)cc3ccccc23)CC1 [Example 152],< 1,< 0.1
Cn1cc2cc(C3(NC(=O)c4ccccc4CNC(=O)C(=O)NCC4CN(C#N)C4)CC3)ccc2n1 [Example 432],1 to 10,0.1 to 1
Cc1n[nH]c(C)c1-c1cc(C2(NC(=O)c3ccccc3CNC(=O)C(=O)NCC#N)CC2)c2ccccc2c1 [Example 288],1 to 10,< 0.1
C[C@@H](C#Cc1nccs1)NC(=O)C(=O)NCc1ccccc1C(=O)NC1(c2cc(F)cc(-c3cnn(C4CC4)c3)c2)CC1 [Example 185],< 1,< 0.1
